Test results taken from patent publication US4973691A, “Etheric derivative of 4(3H)-quinazolinone and a process for preparation thereof” (Spojene Podniky Prozdravotnickou Vyrobu (SPOFA), priority 1988, dated 1990).
Where a name gives a salt, the structure may show the parent alone.

Assays:
analgesic activity = assay type: in vivo; conditions: for ED50 (analgesic activity): p.o.; for ED50: po
gastrotoxicity = conditions: in vivo
in vivo = conditions: po
[1] = extensive investigations in recent years; cited from earlier work
[2] = LD50 (acute (short-time) toxicity)

Row | Compound | LD50 (in vivo; [2]) | ED50 (analgesic activity) | other results
1 | O=c1c2ccccc2ncn1CCOc1ccc(-c2ccc(F)cc2F)cc1 [Preferred etheric derivative (base), 3-[2-(2',4'-difluoro-4-biphenylyloxy)ethyl]-4(3H)-quinazolinone] | 1000 mg/kg | – | ED50 (analgesic activity) (analgesic activity): 71 mg/kg; signs of gastrotoxicity (gastrotoxicity): free of any signs of gastrotoxicity; signs of cancerogenity (cancerogenity): free of any signs of gastrotoxicity and cancerogenity
2 | CC(C)Cc1ccc(C(C)C(=O)O)cc1 (centres unmarked) [Ibuprofen, 2-(4-isobutylphenyl)propionic acid] | – | 179 mg/kg | –
3 | CC(=O)Oc1ccccc1C(=O)O [Acetylosalicylic acid] | – | 190 mg/kg | LD50 (in vivo): 1070 mg/kg
4 | O=c1c2ccccc2ncn1CCOc1ccc(-c2ccc(F)cc2F)cc1 [Preferred etheric derivative (hydrochloride salt)] | – | – | ED50 (analgesic activity) (analgesic activity): 26 mg/kg
5 | Cc1c(N(C)C)c(=O)n(-c2ccccc2)n1C [Aminophenazone, 1-phenyl-2,3-dimethyl-4-dimethylamino-5-pyrazolone] | – | 104 mg/kg | cancerogenic properties [1]: potentially cancerogenic properties; LD50 (in vivo): 800 mg/kg
6 | CC(=O)Nc1ccc(O)cc1 [Paracetamol, 4-hydroxyacetanilide] | 1090 mg/kg | 285 mg/kg | –
7 | O=c1c2ccccc2ncn1CCOc1ccc(-c2ccc(F)cc2F)cc1 | 2000 mg/kg | – | –
